The text below walks through data of US6933304B2, “Heteroarylalkanoic acids as integrin receptor antagonists” (Pharmacia Corporation, priority 2000, dated 2005).

For test [1], the target named is T1, αVβ3 integrin (293-β3 cells) (Homo sapiens, UniProt P05106+P06756).
T1 construct: expressed in transfected cells; host or cells: 293 human embryonic kidney cells (293-β3)
Nature of the test: 293-β3 cell adhesion assay (adhesion to immobilized vitronectin). It is filed as cell-based. The note with it: 200 uM Mn2+, read-out: 293-β3 (IC50 <10 μM). The text has this: While the β3 subunit of αVβ3 is only known to complex with αV or αIIb, the αV subunit complexes with multiple β subunits. The three αV integrins most homologous with αVβ3 are αVβ1, αVβ5 and αVβ6, with 43%, 56% and 47% amino acid identity in the β subunits, respectively. To evaluate the selectivity of compounds between the integrins αVβ3 and αVβ6, cell-based assays were established using the 293 human embryonic kidney cell line. 293 cells express αVβ1, but little to no detectable αVβ3 or αVβ6. cDNAs for β3 and β6 were transfected separately into 293 cells to generate 293-β3 and 293-β6 cells, respectively. High surface expression of αVβ3 and αVβ6 was confirmed by flow cytometry. Conditions were established for each cell line in which cell adhesion to immobilized human vitronectin was mediated by the appropriate integrin, as determined by a panel of integrin-specific, neutralizing monoclonal antibodies. Briefly, cells were incubated with inhibitor in the presence of 200 uM Mn^2+, allowed to adhere to immobilized vitronectin, washed, and adherent cells are detected endogenous alkaline phosphatase and para-nitrophenyl phosphate. An 8-point dose-response curve using either 10-fold or 3-fold dilutions of compound was evaluated by fitting a four-parameter logistic, nonlinear model (using SAS).

The target of test [2] is T2, Human fibrinogen receptor (IIb/IIIa) (Homo sapiens, UniProt P05106+P08514).
T2 construct: Human fibrinogen receptor (IIb/IIIa) was purified from outdated platelets; from tissue; host or cells: outdated human platelets
As to the kind of experiment: Purified IIb/IIIa receptor assay (solid phase receptor assay, SPRA). It is filed as binding. The conditions noted are these: selectivity ratio: IC50 αIIbβ3 (solid phase receptor assay) over IC50 β3. The text has this:
Human fibrinogen receptor (IIb/IIIa) was purified from outdated platelets. (Pytela, R., Pierschbacher, M. D., Argraves, S., Suzuki, S., and Rouslahti, E. “Arginine-Glycine-Aspartic acid adhesion receptors”, Methods in Enzymology 144(1987):475-489.) Human vitronectin was purified from fresh frozen plasma as described in Yatohgo, T., Izumi, M., Kashiwagi, H., and Hayashi, M., “Novel purification of vitronectin from human plasma by heparin affinity chromatography,” Cell Structure and Function 13(1988):281-292. Biotinylated human vitronectin was prepared by coupling NHS-biotin from Pierce Chemical Company (Rockford, IL) to purified vitronectin as previously described. (Charo, I. F., Nannizzi, L., Phillips, D. R., Hsu, M. A., Scarborough, R. M., “Inhibition of fibrinogen binding to GP IIb/IIIa by a GP IIIa peptide”, J. Biol. Chem. 266(3)(1991): 1415-1421.) Assay buffer, OPD substrate tablets, and RIA grade BSA were obtained from Sigma (St. Louis, Mo.). Anti-biotin antibody was obtained from Sigma (St. Louis, Mo.). Nalge Nunc-Immuno microtiter plates were obtained from (Rochester, N.Y.). ADP reagent was obtained from Sigma (St. Louis, Mo.).
This assay is essentially the same reported in Niiya, K., Hodson, E., Bader, R., Byers-Ward, V. Koziol, J. A., Plow, E. F. and Ruggeri, Z. M., “Increased surface expression of the membrane glycoprotein IIb/IIIa complex induced by platelet activation: Relationships to the binding of fibrinogen and platelet aggregation”, Blood 70(1987):475-483. The purified human fibrinogen receptor (IIb/IIIa) was diluted from stock solutions to 1.0 μg/mL in Tris-buffered saline containing 1.0 mM Ca^++, Mg^++, and Mn^++, pH 7.4 (TBS^+++). The diluted receptor was immediately transferred to Nalge Nunc-Immuno microtiter plates at 100 μL/well (100 ng receptor/well). The plates were sealed and incubated overnight at 4° C. to allow the receptors to bind to the wells. All remaining steps were at room temperature. The assay plates were emptied and 200 μL of 1% RIA grade BSA in TBS^+++ (TBS^+++/BSA) were added to block exposed plastic surfaces. Following a 2 hour incubation, the assay plates were washed with TBS^+++ using a 96 well plate washer. Logarithmic serial dilution of the test compound and controls were made starting at a stock concentration of […] and using 2 nM biotinylated vitronectin in TBS^+++/BSA as the diluent. This premixing of labeled ligand with test (or control) ligand, and subsequent transfer of 50 μL aliquots to the assay plate was carried out with a CETUS Propette robot; the final concentration of the labeled ligand was 1 nM and the highest concentration of test compound was 1.0×10^−4 M. The competition occurred for two hours after which all wells were washed with a plate washer as before. Affinity purified horseradish peroxidase labeled goat anti-biotin antibody was diluted 1:2000 in TBS^+++/BSA and 125 μL were added to each well. After 45 minutes, the plates were washed and incubated with […] substrate in 100 mM/L citrate buffer, pH 5.0. The plate was read with a microtiter plate reader at a wavelength of 450 nm and when the maximum-binding control wells reached an absorbance of about 1.0, the final A450 were recorded for analysis. The data were analyzed using a macro written for use with the EXCELJ spreadsheet program. The mean, standard deviation, and %CV were determined for duplicate concentrations. The mean A450 values were normalized to the mean of four maximum-binding controls (no competitor added)(B-MAX). The normalized values were subjected to a four parameter curve fit algorithm, [Robard et al., Int.

Test [3] concerns the target T3, αVβ6 (HT-29 human colon carcinoma cells) (Homo sapiens, UniProt P06756+P18564).
T3 construct: endogenous in cells; host or cells: HT-29 human colon carcinoma cells
Nature of the test: HT-29 cell adhesion assay (adhesion to immobilized LAP). It is filed as cell-based. The conditions noted are these: selectivity ratio: IC50 αVβ6 (HT-29) over IC50 β3. As for the experimental part: To evaluate compound potency for membrane-bound αVβ6 an additional cell-based adhesion assay was established using the HT-29 human colon carcinoma cell line. High surface expression of αVβ6 on HT-29 cells was confirmed by flow cytometry. Conditions were established in which cell adhesion to immobilized human latency associated peptide (LAP) was mediated by the αVβ6, as determined by a panel of integrin-specific, neutralizing monoclonal antibodies. Briefly, cells were incubated with inhibitor in the presence of 200 uM Mn^2+, allowed to adhere to immobilized LAP, washed, and adherent cells are detected by quantifying endogenous alkaline phosphatase using para-nitrophenyl phosphate. An 8-point dose-response curve using either 10-fold or 3-fold dilutions of compound was evaluated by fitting a four-parameter logistic, nonlinear model (using SAS). The compounds evaluated were relatively ineffective at inhibition of αVβ6-mediated cell adhesion. The selective antagonism of the αVβ3 integrin is viewed as desirable in this class of compounds, as αVβ6 may also play a role in normal physiological processes of tissue repair and cellular turnover that routinely occur in the skin and pulmonary tissues.

Counter-ions that a name gives are not always drawn. A value given as a limit tells only on which side of the number the result lay.

T1 sequence (P06756 31-889 limits assumed): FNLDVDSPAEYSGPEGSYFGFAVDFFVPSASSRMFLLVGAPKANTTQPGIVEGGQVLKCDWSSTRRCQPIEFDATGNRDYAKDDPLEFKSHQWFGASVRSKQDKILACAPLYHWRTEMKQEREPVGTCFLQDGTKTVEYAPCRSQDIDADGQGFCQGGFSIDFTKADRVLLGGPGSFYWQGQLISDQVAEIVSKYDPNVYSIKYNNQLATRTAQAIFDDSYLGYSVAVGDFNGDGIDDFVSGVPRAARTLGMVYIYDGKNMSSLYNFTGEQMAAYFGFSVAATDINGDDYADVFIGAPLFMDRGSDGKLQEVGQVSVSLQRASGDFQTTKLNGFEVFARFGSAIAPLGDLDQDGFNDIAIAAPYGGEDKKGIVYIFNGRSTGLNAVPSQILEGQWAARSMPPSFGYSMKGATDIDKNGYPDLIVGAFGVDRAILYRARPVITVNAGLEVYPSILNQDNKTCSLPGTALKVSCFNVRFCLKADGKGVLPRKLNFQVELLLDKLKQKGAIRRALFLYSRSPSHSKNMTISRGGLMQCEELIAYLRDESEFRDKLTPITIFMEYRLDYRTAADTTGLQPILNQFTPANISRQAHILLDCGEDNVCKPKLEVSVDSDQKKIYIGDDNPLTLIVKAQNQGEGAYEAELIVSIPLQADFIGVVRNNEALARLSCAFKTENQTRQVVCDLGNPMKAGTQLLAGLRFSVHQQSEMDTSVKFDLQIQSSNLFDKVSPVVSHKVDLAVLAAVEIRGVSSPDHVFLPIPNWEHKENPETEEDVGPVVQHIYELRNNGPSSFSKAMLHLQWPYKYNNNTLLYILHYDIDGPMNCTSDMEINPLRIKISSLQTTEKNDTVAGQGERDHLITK
T1 sequence (P06756 891-1048 partner limits assumed): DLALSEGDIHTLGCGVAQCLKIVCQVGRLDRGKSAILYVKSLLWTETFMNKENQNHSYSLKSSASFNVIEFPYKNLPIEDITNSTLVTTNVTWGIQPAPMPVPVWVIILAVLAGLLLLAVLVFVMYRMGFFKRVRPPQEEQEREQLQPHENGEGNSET
T1 sequence (P05106 27-788): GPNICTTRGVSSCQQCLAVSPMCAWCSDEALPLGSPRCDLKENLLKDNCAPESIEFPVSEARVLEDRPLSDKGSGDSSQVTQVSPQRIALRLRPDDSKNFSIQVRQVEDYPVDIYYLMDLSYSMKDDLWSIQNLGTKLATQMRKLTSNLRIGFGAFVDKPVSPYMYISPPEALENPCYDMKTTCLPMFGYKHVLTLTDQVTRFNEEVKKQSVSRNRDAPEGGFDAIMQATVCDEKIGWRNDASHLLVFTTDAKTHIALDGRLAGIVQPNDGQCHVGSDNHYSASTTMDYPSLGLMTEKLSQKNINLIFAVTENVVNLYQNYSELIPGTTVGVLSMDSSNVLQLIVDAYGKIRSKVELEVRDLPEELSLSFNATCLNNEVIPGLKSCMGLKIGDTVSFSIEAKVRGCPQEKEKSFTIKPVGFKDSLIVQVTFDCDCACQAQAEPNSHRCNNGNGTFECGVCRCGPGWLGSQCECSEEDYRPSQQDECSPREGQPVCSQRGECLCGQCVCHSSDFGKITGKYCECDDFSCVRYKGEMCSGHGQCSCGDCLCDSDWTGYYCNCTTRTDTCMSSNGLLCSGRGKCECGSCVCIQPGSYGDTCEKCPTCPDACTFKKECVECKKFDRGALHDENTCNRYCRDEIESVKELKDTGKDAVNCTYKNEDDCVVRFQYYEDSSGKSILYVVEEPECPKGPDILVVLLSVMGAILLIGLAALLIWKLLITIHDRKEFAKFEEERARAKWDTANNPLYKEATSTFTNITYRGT
T3 sequence (P06756 31-889 limits assumed): as the sequence (P06756 31-889 limits assumed) above
T3 sequence (P06756 891-1048 partner limits assumed): as the sequence (P06756 891-1048 partner limits assumed) above
T3 sequence (P18564 22-788): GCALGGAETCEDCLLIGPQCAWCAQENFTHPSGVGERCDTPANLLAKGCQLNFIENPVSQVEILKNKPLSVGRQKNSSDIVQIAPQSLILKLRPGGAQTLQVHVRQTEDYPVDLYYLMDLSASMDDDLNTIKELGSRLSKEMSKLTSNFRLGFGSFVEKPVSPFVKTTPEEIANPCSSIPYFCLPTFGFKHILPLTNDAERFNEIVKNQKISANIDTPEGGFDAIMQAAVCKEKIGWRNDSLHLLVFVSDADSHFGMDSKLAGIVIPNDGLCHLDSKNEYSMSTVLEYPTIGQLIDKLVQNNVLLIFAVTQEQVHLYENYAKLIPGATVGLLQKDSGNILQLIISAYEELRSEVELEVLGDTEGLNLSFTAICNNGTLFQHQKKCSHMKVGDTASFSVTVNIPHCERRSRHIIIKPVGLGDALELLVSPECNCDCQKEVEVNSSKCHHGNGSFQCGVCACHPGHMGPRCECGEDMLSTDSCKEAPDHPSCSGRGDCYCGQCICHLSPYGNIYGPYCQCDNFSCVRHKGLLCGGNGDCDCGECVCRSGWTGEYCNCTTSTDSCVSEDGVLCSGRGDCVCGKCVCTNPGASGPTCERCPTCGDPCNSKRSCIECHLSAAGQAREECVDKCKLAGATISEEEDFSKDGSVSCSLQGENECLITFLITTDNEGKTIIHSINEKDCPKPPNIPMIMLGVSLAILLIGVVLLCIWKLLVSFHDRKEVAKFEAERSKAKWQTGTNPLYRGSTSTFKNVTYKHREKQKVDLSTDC
T2 sequence (P08514 32-887 limits assumed): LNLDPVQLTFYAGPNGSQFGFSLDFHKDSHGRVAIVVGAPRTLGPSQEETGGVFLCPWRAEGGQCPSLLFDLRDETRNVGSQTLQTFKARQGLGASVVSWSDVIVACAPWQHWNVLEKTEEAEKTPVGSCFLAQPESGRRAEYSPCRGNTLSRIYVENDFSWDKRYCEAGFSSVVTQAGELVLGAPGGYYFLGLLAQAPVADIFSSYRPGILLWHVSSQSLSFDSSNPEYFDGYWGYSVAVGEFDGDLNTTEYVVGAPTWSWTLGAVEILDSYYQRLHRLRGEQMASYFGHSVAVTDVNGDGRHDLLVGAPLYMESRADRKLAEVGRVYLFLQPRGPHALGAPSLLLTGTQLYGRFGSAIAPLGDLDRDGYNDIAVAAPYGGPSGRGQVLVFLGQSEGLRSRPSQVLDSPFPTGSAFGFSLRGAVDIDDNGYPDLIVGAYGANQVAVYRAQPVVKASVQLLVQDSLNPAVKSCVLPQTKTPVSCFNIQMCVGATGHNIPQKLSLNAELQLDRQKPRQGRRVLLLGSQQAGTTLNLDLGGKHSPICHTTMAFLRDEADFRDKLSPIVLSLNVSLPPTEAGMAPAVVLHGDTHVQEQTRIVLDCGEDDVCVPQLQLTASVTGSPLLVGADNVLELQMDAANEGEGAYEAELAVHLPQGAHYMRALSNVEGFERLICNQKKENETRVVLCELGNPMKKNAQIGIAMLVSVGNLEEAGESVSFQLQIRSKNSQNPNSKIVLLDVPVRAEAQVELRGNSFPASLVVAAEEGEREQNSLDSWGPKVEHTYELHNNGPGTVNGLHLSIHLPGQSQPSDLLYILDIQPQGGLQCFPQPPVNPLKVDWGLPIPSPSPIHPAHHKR
T2 sequence (P08514 891-1039 partner limits assumed): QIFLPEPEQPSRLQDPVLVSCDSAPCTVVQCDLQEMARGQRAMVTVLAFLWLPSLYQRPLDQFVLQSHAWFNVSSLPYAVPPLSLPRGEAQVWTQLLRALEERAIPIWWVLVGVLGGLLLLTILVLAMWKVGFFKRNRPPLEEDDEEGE
T2 sequence (P05106 27-788): as the sequence (P05106 27-788) above

A word on the IC50: it is the concentration that gives 50% inhibition. Take `O=C(O)C(F)(F)F.O=C(O)CC(Cc1nc(CCCc2ccc3c(n2)NCCC3)no1)c1ccc(F)cc1` (stereo not drawn) [Example 26, 3-(4-fluorophenyl)-4-{3-[3-(5,6,7,8-tetrahydro-1,8-naphthyridin-2-yl)propyl]-1,2,4-oxadiazol-5-yl}butanoic acid trifluoroacetate]: the IC50 in test [1] is less than 10 µM. Also, the “SPRA AIIbB3 Selectivity* IIbIIIa/β3” value in test [2] was “+++ (Selectivity Ratio >100 +++)”. For the same molecule, in test [3], the “HT-29 β-6 Selectivity* (β6/β3)” value is “+++ (Selectivity Ratio >100 +++)”.

As for `O=C(O)C(F)(F)F.O=C(O)CC(Cc1nc(CCCCNc2ccccn2)no1)c1ccc(F)cc1` (stereo not drawn) [Example 27, 3-(4-fluorophenyl)-4-{3-[4-(pyridin-2-ylamino)butyl]-1,2,4-oxadiazol-5-yl}butanoic acid], in test [1], the half-maximal inhibitory concentration (IC50) was less than 10 µM. Besides, the “SPRA AIIbB3 Selectivity* IIbIIIa/β3” value in test [2] is on record as “+++ (Selectivity Ratio >100 +++)”. Moreover, the “HT-29 β-6 Selectivity* (β6/β3)” value in test [3] is “+++ (Selectivity Ratio >100 +++)”.

Take `O=C(O)C(F)(F)F.O=C(O)CC(Cc1nc(CCCc2ccc3c(n2)NCCC3)no1)c1cccc(C(F)(F)F)c1` (stereo not drawn) [Example 28, 4-{3-[3-(5,6,7,8-tetrahydro-1,8-naphthyridin-2-yl)propyl]-1,2,4-oxadiazol-5-yl}-3-[3-(trifluoromethyl)phenyl]butanoic acid]: in test [1], the IC50 was less than 10 µM. Further, the “SPRA AIIbB3 Selectivity* IIbIIIa/β3” value in test [2] was “+++ (Selectivity Ratio >100 +++)”. The “HT-29 β-6 Selectivity* (β6/β3)” value in test [3] is given as “+++ (Selectivity Ratio >100 +++)”.

Consider `O=C(O)C(F)(F)F.O=C(O)CC(Cc1nc(CCCCNc2ccccn2)no1)c1cccc(C(F)(F)F)c1` (stereo not drawn) [Example 29, 4-{3-[4-(pyridin-2-ylamino)butyl]-1,2,4-oxadiazol-5-yl}-3-[3-(trifluoromethyl)-phenyl]butanoic acid], for which, in test [1], the IC50 was less than 10 µM. In addition, in test [2], the “SPRA AIIbB3 Selectivity* IIbIIIa/β3” value is “+++ (Selectivity Ratio >100 +++)”. For the same molecule, the “HT-29 β-6 Selectivity* (β6/β3)” value in test [3] is on record as “+++ (Selectivity Ratio >100 +++)”.

In the case of `O=C(O)C(F)(F)F.O=C(O)CC(Cc1nc(CCCc2ccc3c(n2)NCCC3)no1)c1cccnc1` (stereo not drawn) [Example 32, 3-pyridin-3-yl-4-{3-[3-(5,6,7,8-tetrahydro-1,8-naphthyridin-2-yl)propyl]-1,2,4-oxadiazol-5-yl}butanoic acid], the IC50 in test [1] was less than 10 µM. In addition, the “SPRA AIIbB3 Selectivity* IIbIIIa/β3” value in test [2] is given as “+++ (Selectivity Ratio >100 +++)”. In test [3], the “HT-29 β-6 Selectivity* (β6/β3)” value is reported as “+++ (Selectivity Ratio >100 +++)”.

For the molecule `O=C(O)CC(Cc1nc(CCCc2ccc3c(n2)NCCC3)no1)c1ccccc1` (stereo not drawn) [Example 34, 3-phenyl-4-{3-[3-(5,6,7,8-tetrahydro-1,8-naphthyridin-2-yl)propyl]-1,2,4-oxadiazol-5-yl}butanoic acid trifluoroacetate], in test [1], the IC50 is less than 10 µM. The “SPRA AIIbB3 Selectivity* IIbIIIa/β3” value in test [2] is “+++ (Selectivity Ratio >100 +++)”. Besides, the “HT-29 β-6 Selectivity* (β6/β3)” value in test [3] was “+++ (Selectivity Ratio >100 +++)”.

For the molecule `O=C(O)CC(Cc1nc(CCCCNc2ccccn2)no1)c1ccccc1` (stereo not drawn) [Example 35, 3-phenyl-4-{3-[4-(pyridin-2-ylamino)butyl]-1,2,4-oxadiazol-5-yl}butanoic acid], the IC50 in test [1] was less than 10 µM. In test [2], the “SPRA AIIbB3 Selectivity* IIbIIIa/β3” value is listed as “++ (Selectivity Ratio of 10-100 ++)”. In test [3], the “HT-29 β-6 Selectivity* (β6/β3)” value is reported as “+++ (Selectivity Ratio >100 +++)”.

Consider `CCC(C)(CC(=O)O)Cc1nc(CCCCNc2ccccn2)no1` (stereo not drawn) [Example 36, 3-methyl-3-({3-[4-(pyridin-2-ylamino)butyl]-1,2,4-oxadiazol-5-yl}methyl)pentanoic acid], for which the concentration for half-maximal inhibition (IC50) in test [1] was less than 10 µM. In test [2], the “SPRA AIIbB3 Selectivity* IIbIIIa/β3” value is “+++ (Selectivity Ratio >100 +++)”. In test [3], the “HT-29 β-6 Selectivity* (β6/β3)” value was “+++ (Selectivity Ratio >100 +++)”.

For `O=C(O)CC1(Cc2nc(CCCCNc3ccccn3)no2)CCCCC1` [Example 37, [1-({3-[4-(pyridin-2-ylamino)butyl]-1,2,4-oxadiazol-5-yl}methyl)cyclohexyl]-acetic acid], the half-inhibitory concentration (IC50) in test [1] is less than 10 µM. Besides, the “SPRA AIIbB3 Selectivity* IIbIIIa/β3” value in test [2] is reported as “++ (Selectivity Ratio of 10-100 ++)”. In test [3], the “HT-29 β-6 Selectivity* (β6/β3)” value was “++ (Selectivity Ratio of 10-100 ++)”.

For the molecule `CCCC(C)(CC(=O)O)Cc1nc(CCCCNc2ccccn2)no1` (stereo not drawn) [Example 38, 3-methyl-3-({3-[4-(pyridin-2-ylamino)butyl]-1,2,4-oxadiazol-5-yl}methyl)-hexanoic acid], in test [1], the IC50 was less than 10 µM. Besides, the “SPRA AIIbB3 Selectivity* IIbIIIa/β3” value in test [2] is “+++ (Selectivity Ratio >100 +++)”. Besides, the “HT-29 β-6 Selectivity* (β6/β3)” value in test [3] is reported as “+++ (Selectivity Ratio >100 +++)”.

`CC(C)C(C)(CC(=O)O)Cc1nc(CCCCNc2ccccn2)no1` (stereo not drawn) [Example 39, 3,4-dimethyl-3-({3-[4-(pyridin-2-ylamino)butyl]-1,2,4-oxadiazol-5-yl}methyl)-pentanoic acid]: the 50% inhibitory concentration (IC50) in test [1] is less than 10 µM. The “SPRA AIIbB3 Selectivity* IIbIIIa/β3” value in test [2] was “++ (Selectivity Ratio of 10-100 ++)”. The “HT-29 β-6 Selectivity* (β6/β3)” value in test [3] is listed as “++ (Selectivity Ratio of 10-100 ++)”.

As for `CCC(CC)(CC(=O)O)Cc1nc(CCCCNc2ccccn2)no1` [Example 40, 3-ethyl-3-({3-[4-(pyridin-2-ylamino)butyl]-1,2,4-oxadiazol-5-yl}methyl)-pentanoic acid], the 50% inhibitory concentration (IC50) in test [1] is less than 10 µM. In test [2], the “SPRA AIIbB3 Selectivity* IIbIIIa/β3” value was “+++ (Selectivity Ratio >100 +++)”. Besides, in test [3], the “HT-29 β-6 Selectivity* (β6/β3)” value was “++ (Selectivity Ratio of 10-100 ++)”.

On to `O=C(O)CCCc1nc(CCCCNc2ccccn2)no1` [Example 41, 4-{3-[4-(pyridin-2-ylamino)butyl]-1,2,4-oxadiazol-5-yl}butanoic acid], for which the 50% inhibitory concentration (IC50) in test [1] is less than 10 µM. For the same molecule, in test [2], the “SPRA AIIbB3 Selectivity* IIbIIIa/β3” value is listed as “++ (Selectivity Ratio of 10-100 ++)”. Besides, in test [3], the “HT-29 β-6 Selectivity* (β6/β3)” value is on record as “+++ (Selectivity Ratio >100 +++)”.
